Experimental data: ChEMBL document CHEMBL5038612, “Discovery of a 2,4-diphenyl-5,6-dihydrobenzo(h)quinolin-8-amine derivative as a novel DNA intercalating topoisomerase IIα poison” (Eur J Med Chem, 2021)
Where a name gives a salt, the structure may show the parent alone. Calls of active or inactive are those of the source. No cut-off for these calls is given here.

How the values were obtained:
[1] = biological target: T1, DNA topoisomerase 2-alpha (Homo sapiens, UniProt P11388); experiment: Inhibition of human topoisomerase 2 alpha mediated supercoiled pBR322 DNA relaxation at 100 uM by ethidium bromide staining based agarose gel electrophoresis relative to control
T1 sequence (P11388 whole entry): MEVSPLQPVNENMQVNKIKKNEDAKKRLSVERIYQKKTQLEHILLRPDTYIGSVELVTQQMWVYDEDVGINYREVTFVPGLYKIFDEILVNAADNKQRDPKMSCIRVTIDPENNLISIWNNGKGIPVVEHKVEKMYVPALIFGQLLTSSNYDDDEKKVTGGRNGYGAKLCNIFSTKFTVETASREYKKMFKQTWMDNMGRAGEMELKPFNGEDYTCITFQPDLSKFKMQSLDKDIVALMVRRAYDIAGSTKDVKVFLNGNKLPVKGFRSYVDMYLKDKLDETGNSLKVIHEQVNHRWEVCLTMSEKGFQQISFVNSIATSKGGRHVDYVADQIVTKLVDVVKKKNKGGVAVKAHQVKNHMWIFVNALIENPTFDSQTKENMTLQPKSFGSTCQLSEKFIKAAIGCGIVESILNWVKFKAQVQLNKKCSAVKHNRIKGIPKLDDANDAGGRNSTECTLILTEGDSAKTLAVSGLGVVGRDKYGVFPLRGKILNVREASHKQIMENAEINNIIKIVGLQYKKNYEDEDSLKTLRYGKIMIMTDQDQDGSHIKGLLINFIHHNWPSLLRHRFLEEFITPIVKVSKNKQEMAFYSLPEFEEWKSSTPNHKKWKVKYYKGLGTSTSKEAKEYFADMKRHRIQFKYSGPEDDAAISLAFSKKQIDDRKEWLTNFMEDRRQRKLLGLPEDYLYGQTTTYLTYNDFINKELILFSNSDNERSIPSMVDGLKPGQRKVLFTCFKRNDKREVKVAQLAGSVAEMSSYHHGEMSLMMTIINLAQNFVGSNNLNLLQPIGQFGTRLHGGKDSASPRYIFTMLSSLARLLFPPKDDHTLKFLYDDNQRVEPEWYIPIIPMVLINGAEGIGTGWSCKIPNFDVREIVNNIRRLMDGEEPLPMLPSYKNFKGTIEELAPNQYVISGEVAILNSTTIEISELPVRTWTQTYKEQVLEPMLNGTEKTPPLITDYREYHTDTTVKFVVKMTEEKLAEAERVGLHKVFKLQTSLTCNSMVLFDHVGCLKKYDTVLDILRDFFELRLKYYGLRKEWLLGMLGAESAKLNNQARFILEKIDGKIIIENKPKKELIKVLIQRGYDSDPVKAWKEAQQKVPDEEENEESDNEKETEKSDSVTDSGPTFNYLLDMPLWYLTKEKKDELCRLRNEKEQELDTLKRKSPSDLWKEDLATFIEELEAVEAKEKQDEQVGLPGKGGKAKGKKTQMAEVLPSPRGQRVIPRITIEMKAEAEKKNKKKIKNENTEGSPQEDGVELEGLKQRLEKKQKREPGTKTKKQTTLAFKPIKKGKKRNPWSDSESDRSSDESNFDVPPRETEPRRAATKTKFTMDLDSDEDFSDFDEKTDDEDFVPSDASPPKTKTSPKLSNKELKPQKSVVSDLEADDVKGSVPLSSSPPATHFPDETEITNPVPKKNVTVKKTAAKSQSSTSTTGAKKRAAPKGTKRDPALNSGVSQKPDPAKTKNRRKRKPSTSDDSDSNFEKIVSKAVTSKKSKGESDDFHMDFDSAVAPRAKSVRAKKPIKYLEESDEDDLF

HCT-15 = experiment: Antiproliferative activity against human HCT-15 cells assessed as reduction in cell viability after 48 hrs by Ez-cytoX based microplate reader method; type: functional; conditions: HCT-15, 48 h
HeLa = experiment: Antiproliferative activity against human HeLa cells assessed as reduction in cell viability after 48 hrs by Ez-cytoX based microplate reader method; type: functional
[2] = biological target: T1, DNA topoisomerase 2-alpha; experiment: Inhibition of human topoisomerase 2 alpha mediated supercoiled pBR322 DNA relaxation by ethidium bromide staining based agarose gel electrophoresis
DU-145 = experiment: Antiproliferative activity against human DU-145 cells assessed as reduction in cell viability after 48 hrs by Ez-cytoX based microplate reader method; type: functional; conditions: DU-145, 48 h
SK-OV-3 = experiment: Antiproliferative activity against human SK-OV-3 cells assessed as reduction in cell viability after 48 hrs by Ez-cytoX based microplate reader method; type: functional; conditions: SK-OV-3, 48 h
BT-474 = experiment: Antiproliferative activity against human BT-474 cells assessed as reduction in cell viability after 48 hrs by Ez-cytoX based microplate reader method; type: functional; conditions: BT-474, 48 h
LNCaP-Clone-FGC = experiment: Antiproliferative activity against human LNCaP-Clone-FGC cells assessed as reduction in cell viability after 48 hrs by Ez-cytoX based microplate reader method; type: functional
LNCaP = experiment: Antiproliferative activity against human LNCaP-LN3 cells assessed as reduction in cell viability after 48 hrs by Ez-cytoX based microplate reader method; type: functional
Calf thymus DNA [3] = experiment: Binding affinity to calf thymus DNA assessed as DNA intercalation at 10 to 100 uM by fluorescence based EtBr-displacement assay; type: nucleic-acid assay; conditions: Bos taurus; dose 10-100 µM
Calf thymus DNA [4] = experiment: Binding affinity to calf thymus DNA assessed as DNA intercalation at 100 uM by fluorescence based EtBr-displacement assay relative to control; type: nucleic-acid assay; conditions: Bos taurus
[5] = biological target: T1, DNA topoisomerase 2-alpha; experiment: Inhibition of human topoisomerase 2 alpha mediated supercoiled pBR322 DNA relaxation at 2 uM by ethidium bromide staining based agarose gel electrophoresis relative to control
[6] = biological target: T1, DNA topoisomerase 2-alpha; experiment: Inhibition of human topoisomerase 2 alpha mediated supercoiled pBR322 DNA relaxation at 5 uM by ethidium bromide staining based agarose gel electrophoresis relative to control
[7] = biological target: T1, DNA topoisomerase 2-alpha; experiment: Inhibition of human topoisomerase 2 alpha mediated supercoiled pBR322 DNA relaxation at 10 uM by ethidium bromide staining based agarose gel electrophoresis relative to control
[8] = biological target: DNA topoisomerase 2-beta (Homo sapiens) (UniProt Q02880); experiment: Inhibition of human topoisomerase 2 beta mediated supercoiled pBR322 DNA relaxation at 100 uM by ethidium bromide staining based agarose gel electrophoresis relative to control
Sequence of DNA topoisomerase 2-beta (Homo sapiens) (Q02880 whole entry): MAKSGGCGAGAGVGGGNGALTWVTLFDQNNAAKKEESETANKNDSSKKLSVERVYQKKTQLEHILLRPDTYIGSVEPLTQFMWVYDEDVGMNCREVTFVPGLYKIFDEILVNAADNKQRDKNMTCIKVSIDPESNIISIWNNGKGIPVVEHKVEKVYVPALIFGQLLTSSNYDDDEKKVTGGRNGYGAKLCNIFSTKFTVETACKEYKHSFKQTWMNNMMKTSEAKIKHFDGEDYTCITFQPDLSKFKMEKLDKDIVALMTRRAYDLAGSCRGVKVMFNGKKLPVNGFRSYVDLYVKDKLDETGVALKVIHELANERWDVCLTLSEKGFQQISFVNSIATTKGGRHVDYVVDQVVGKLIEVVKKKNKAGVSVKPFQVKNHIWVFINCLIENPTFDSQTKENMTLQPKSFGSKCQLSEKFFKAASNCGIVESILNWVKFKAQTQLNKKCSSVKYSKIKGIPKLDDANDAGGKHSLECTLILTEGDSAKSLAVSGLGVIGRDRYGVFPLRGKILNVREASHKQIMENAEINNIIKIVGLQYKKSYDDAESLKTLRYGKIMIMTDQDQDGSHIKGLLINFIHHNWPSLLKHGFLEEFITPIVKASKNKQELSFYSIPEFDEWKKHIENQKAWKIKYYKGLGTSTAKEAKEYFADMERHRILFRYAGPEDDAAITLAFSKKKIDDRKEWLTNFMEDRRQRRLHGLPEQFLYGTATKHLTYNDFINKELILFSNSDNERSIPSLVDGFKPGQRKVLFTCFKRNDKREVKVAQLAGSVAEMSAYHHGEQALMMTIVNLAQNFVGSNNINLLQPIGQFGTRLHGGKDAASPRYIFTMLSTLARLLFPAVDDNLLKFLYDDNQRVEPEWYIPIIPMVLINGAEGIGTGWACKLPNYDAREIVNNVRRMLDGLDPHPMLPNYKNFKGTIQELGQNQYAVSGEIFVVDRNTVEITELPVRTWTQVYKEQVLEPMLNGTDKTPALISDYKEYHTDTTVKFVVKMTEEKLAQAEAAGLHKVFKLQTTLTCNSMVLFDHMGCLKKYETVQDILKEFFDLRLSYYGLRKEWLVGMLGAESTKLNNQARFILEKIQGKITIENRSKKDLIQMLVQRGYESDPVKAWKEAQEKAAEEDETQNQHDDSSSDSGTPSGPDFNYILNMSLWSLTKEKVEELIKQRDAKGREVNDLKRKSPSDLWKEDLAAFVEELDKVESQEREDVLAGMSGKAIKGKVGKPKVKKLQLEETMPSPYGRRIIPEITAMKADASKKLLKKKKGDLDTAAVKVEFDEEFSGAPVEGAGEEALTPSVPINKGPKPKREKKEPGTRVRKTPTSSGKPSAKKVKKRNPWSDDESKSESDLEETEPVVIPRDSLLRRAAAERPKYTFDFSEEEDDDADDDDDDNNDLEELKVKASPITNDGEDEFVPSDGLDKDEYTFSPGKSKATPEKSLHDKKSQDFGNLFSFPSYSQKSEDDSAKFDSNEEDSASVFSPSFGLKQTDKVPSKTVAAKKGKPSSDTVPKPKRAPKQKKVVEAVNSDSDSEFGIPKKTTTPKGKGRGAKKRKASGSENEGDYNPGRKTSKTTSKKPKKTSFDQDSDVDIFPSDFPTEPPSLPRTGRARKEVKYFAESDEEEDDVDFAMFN

[9] = biological target: DNA topoisomerase 2-beta (Homo sapiens) (UniProt Q02880); experiment: Inhibition of human topoisomerase 2 beta mediated supercoiled pBR322 DNA relaxation at 2 uM by ethidium bromide staining based agarose gel electrophoresis relative to control
[10] = biological target: DNA topoisomerase 2-beta (Homo sapiens) (UniProt Q02880); experiment: Inhibition of human topoisomerase 2 beta mediated supercoiled pBR322 DNA relaxation at 5 uM by ethidium bromide staining based agarose gel electrophoresis relative to control
[11] = biological target: T1, DNA topoisomerase 2-alpha; experiment: Inhibition of human topoisomerase 2 alpha mediated supercoiled pBR322 DNA relaxation at 1 uM by ethidium bromide staining based agarose gel electrophoresis relative to control

Row | inhibition [1] | Structure (SMILES) | IC50 (HCT-15) | IC50 (HeLa) | further results
1 | 60% | Nc1ccc2c(c1)CCc1c(-c3cccc(OC(F)(F)F)c3)cc(-c3cccc(O)c3)nc1-2 | 1.84 µM | 4.62 µM | –
2 | 72.4% | Nc1ccc2c(c1)CCc1c(-c3ccc(C(F)(F)F)cc3)cc(-c3cccc(O)c3)nc1-2 | 2.34 µM | 4.98 µM | –
3 | 87.4% | Nc1ccc2c(c1)CCc1c(-c3ccccc3C(F)(F)F)cc(-c3cccc(O)c3)nc1-2 | 2.93 µM | 5.4 µM | –
4 | 70% | Nc1ccc2c(c1)CCc1c(-c3ccccc3OC(F)(F)F)cc(-c3ccccc3O)nc1-2 | 2.86 µM | 5.46 µM | –
5 | 1.2% | Nc1ccc2c(c1)CCc1c(-c3ccccc3F)cc(-c3ccccc3O)nc1-2 | 1.11 µM | 22.8 µM | –
6 | 30.2% | Nc1ccc2c(c1)CCc1c(-c3ccc(OC(F)(F)F)cc3)cc(-c3ccccc3O)nc1-2 | > 50 µM | > 50 µM | –
7 | 62.8% | Nc1ccc2c(c1)CCc1c(-c3ccccc3OC(F)(F)F)cc(-c3cccc(O)c3)nc1-2 | 5.58 µM | 3.41 µM | –
8 | 25.7% | Nc1ccc2c(c1)CCc1c(-c3cccc(C(F)(F)F)c3)cc(-c3ccccc3O)nc1-2 | 2.29 µM | 7.61 µM | –
9 | 3.4% | Nc1ccc2c(c1)CCc1c(-c3cccc(F)c3)cc(-c3cccc(O)c3)nc1-2 | 3.91 µM | 4.19 µM | –
10 | 21.7% | Nc1ccc2c(c1)CCc1c(-c3ccccc3)cc(-c3ccc(O)cc3)nc1-2 | 3.82 µM | 6.55 µM | –
11 | 77.6% | Nc1ccc2c(c1)CCc1c(-c3ccc(F)cc3)cc(-c3ccc(O)cc3)nc1-2 | 2.96 µM | 5.64 µM | –

Second part, the molecule before the results:

Row | Structure (SMILES) | inhibition [1] | IC50 (HCT-15) | IC50 (HeLa) | further results
12 | Nc1ccc2c(c1)CCc1c(-c3ccccc3C(F)(F)F)cc(-c3ccccc3O)nc1-2 | 29.3% | 1.23 µM | 6.58 µM | –
13 | Nc1ccc2c(c1)CCc1c(-c3ccccc3OC(F)(F)F)cc(-c3ccc(O)cc3)nc1-2 | 72.5% | 2.96 µM | 2.87 µM | –
14 | Nc1ccc2c(c1)CCc1c(-c3cccc(C(F)(F)F)c3)cc(-c3ccc(O)cc3)nc1-2 | 75% | 2 µM | 5.14 µM | –
15 | Nc1ccc2c(c1)CCc1c(-c3ccc(F)cc3)cc(-c3cccc(O)c3)nc1-2 | 3.9% | 2.87 µM | 5.18 µM | –
16 | Nc1ccc2c(c1)CCc1c(-c3ccccc3)cc(-c3ccccc3O)nc1-2 | 0% | 3.47 µM | 33.2 µM | –
17 | Nc1ccc2c(c1)CCc1c(-c3cccc(C(F)(F)F)c3)cc(-c3cccc(O)c3)nc1-2 | 62.9% | 2.43 µM | 4.49 µM | –
18 | Nc1ccc2c(c1)CCc1c(-c3ccccc3)cc(-c3cccc(O)c3)nc1-2 | 1.5% | 3.3 µM | 4.05 µM | –
19 | Nc1ccc2c(c1)CCc1c(-c3ccc(OC(F)(F)F)cc3)cc(-c3cccc(O)c3)nc1-2 | 49% | 2.71 µM | 5.59 µM | –
20 | Nc1ccc2c(c1)CCc1c(-c3cccc(F)c3)cc(-c3ccccc3O)nc1-2 | 1.3% | 2.26 µM | 8.16 µM | –
21 | Nc1ccc2c(c1)CCc1c(-c3ccccc3F)cc(-c3cccc(O)c3)nc1-2 | 4.3% | 1.92 µM | 5.38 µM | –
22 | Nc1ccc2c(c1)CCc1c(-c3ccc(C(F)(F)F)cc3)cc(-c3ccc(O)cc3)nc1-2 | 77.8% | 2.73 µM | 5.54 µM | –
23 | Nc1ccc2c(c1)CCc1c(-c3cccc(F)c3)cc(-c3ccc(O)cc3)nc1-2 | 10.5% | 1.85 µM | 5.05 µM | –
24 | Nc1ccc2c(c1)CCc1c(-c3cccc(OC(F)(F)F)c3)cc(-c3ccc(O)cc3)nc1-2 | 36.5% | 1.79 µM | 3.78 µM | –
25 | Nc1ccc2c(c1)CCc1c(-c3ccc(OC(F)(F)F)cc3)cc(-c3ccc(O)cc3)nc1-2 | 36.5% | 2.02 µM | 5.86 µM | –
26 | COc1cc([C@@H]2c3cc4c(cc3[C@@H](O[C@@H]3O[C@@H]5CO[C@@H](C)O[C@H]5[C@H](O)[C@H]3O)[C@H]3COC(=O)[C@H]23)OCO4)cc(OC)c1O [ETOPOSIDE] | – | – | 8.3 µM | –
27 | Nc1ccc2c(c1)CCc1c(-c3ccc(F)cc3)cc(-c3ccccc3O)nc1-2 | 1.2% | > 50 µM | > 50 µM | –
28 | COc1cccc2c1C(=O)c1c(O)c3c(c(O)c1C2=O)C[C@@](O)(C(=O)CO)C[C@@H]3O[C@H]1C[C@H](N)[C@H](O)[C@H](C)O1 [DOXORUBICIN HYDROCHLORIDE] | – | 1.89 µM | – | –
29 | Nc1ccc2c(c1)CCc1c(-c3ccc(C(F)(F)F)cc3)cc(-c3ccccc3O)nc1-2 | 28.8% | > 50 µM | > 50 µM | –
30 | Nc1ccc2c(c1)CCc1c(-c3ccccc3F)cc(-c3ccc(O)cc3)nc1-2 | 25.3% | 1.52 µM | 3.26 µM | –
31 | Nc1ccc2c(c1)CCc1c(-c3ccccc3C(F)(F)F)cc(-c3ccc(O)cc3)nc1-2 | 81.9% | 1.99 µM | 5.07 µM | IC50 [2]: 3.58 µM; IC50 (DU-145): 1.56 µM; IC50 (SK-OV-3): 1.67 µM; IC50 (BT-474): 5.13 µM; IC50 (LNCaP-Clone-FGC): 7.18 µM; IC50 (LNCaP): 5.58 µM; Activity (Calf thymus DNA [3]): Dose-Dependent Effect; Activity (Calf thymus DNA [4]): inactive; inhibition [5]: 34.4%; inhibition [6]: 57%; inhibition [7]: 66.2%; inhibition [8]: 82.6%; inhibition [9]: 19.6%; inhibition [10]: 21.7%; inhibition [11]: 22.3%
